In PubChem BioAssay (NCI):
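Interpolation was linear, between the two tested concentrations surrounding the appropriate level; five concentrations were tested over 48 hours in 96-well plates. GI50 = concentration required for 50% inhibition of growth. TGI denotes the concentration required for complete inhibition of growth.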

Tested on: P388/ADR leukemia
Experiment: NCI tumour cell line growth inhibition, 48 h

Work on `CC[C@H]1CN2CCc3cc(OC)c(OC)cc3[C@@H]2C[C@@H]1C[C@H]1NCCc2cc(O)c(OC)cc21` yielded a GI50 of 0.0609 µM and a TGI of 29.6 µM.
